Measured values as given in PubChem BioAssay AID226 (DTP/NCI, 2004).
Where “and” joins values, the source holds several entries; their conditions need not be identical. Equal entries are not always repeated. Inconclusive results and toxic doses are left out.

System: B6C3F1 mice, intracerebral ependymoblastoma, median survival T/C
Experiment: NCI In Vivo Anticancer Drug Screen. Data for tumor model Ependymoblastoma (intracerebral) in B6C3F1 mice
Conditions: endpoint: median survival time, higher = longer survival
Protocol: The antitumor activity of compounds was measured in mice bearing transplantable tumors. Survival or tumor size were measured and the results are expressed as the measurement made in the treated group (T) divided by the measurement made in the vehicle treated control group (C). The tumor model used in this assay is Ependymoblastoma (intracerebral) in B6C3F1 mice

[1] = dose: 12.5 mg/kg/injection, schedule: Q01DX005 (ip), vehicle: saline with Tween-80
[2] = dose: 25.0 mg/kg/injection, schedule: Q01DX005 (ip), vehicle: saline with Tween-80
[3] = dose: 50.0 mg/kg/injection, schedule: Q01DX005 (ip), vehicle: saline with Tween-80
[4] = dose: 100.0 mg/kg/injection, schedule: Q01DX005 (ip), vehicle: saline with Tween-80

CC(C)(N)C(=O)O
T/C [1]: 103 % of control
T/C [2]: 114 % of control
T/C [3]: 114 % of control
T/C [4]: 105 % of control
T/C (dose: 200.0 mg/kg/injection, schedule: Q01DX005 (ip), vehicle: saline with Tween-80): 97 % of control
T/C (dose: 400.0 mg/kg/injection, schedule: Q01DX005 (ip), vehicle: saline with Tween-80): 95 % of control
T/C (dose: 800.0 mg/kg/injection, schedule: Q01DX005 (ip), vehicle: saline with Tween-80): 98 % of control
T/C (dose: 1600.0 mg/kg/injection, schedule: Q01DX005 (ip), vehicle: saline with Tween-80): 116 % of control

O=NN(CCCl)C(=O)NC1CCCCC1
T/C (dose: 1.5 mg/kg/injection, schedule: Q01DX009 (ip), vehicle: Klucel (hydroxypropylcellulose) (HPC)): 110 % of control
T/C (dose: 2.4 mg/kg/injection, schedule: Q01DX001 (ip), vehicle: other): 98 % of control
T/C (dose: 4.0 mg/kg/injection, schedule: Q01DX009 (ip), vehicle: Klucel (hydroxypropylcellulose) (HPC)): 241 % of control
T/C (dose: 4.7 mg/kg/injection, schedule: Q01DX001 (ip), vehicle: other): 102 % of control
T/C (dose: 5.18 mg/kg/injection, schedule: Q01DX005 (ip), vehicle: Klucel (hydroxypropylcellulose) (HPC)): 154 % of control
T/C (dose: 6.0 mg/kg/injection, schedule: Q01DX009 (ip), vehicle: Klucel (hydroxypropylcellulose) (HPC)): 213 % of control
T/C (dose: 8.0 mg/kg/injection, schedule: Q01DX009 (ip), vehicle: Klucel (hydroxypropylcellulose) (HPC)): 241 % of control
T/C (dose: 8.64 mg/kg/injection, schedule: Q01DX005 (ip), vehicle: Klucel (hydroxypropylcellulose) (HPC)): 244 % of control
T/C (dose: 9.5 mg/kg/injection, schedule: Q01DX001 (ip), vehicle: other): 121 % of control
T/C (dose: 12.0 mg/kg/injection, schedule: Q01DX009 (ip), vehicle: Klucel (hydroxypropylcellulose) (HPC)): 326 % of control
T/C (dose: 13.0 mg/kg/injection, schedule: Q01DX001 (ip), vehicle: Klucel (hydroxypropylcellulose) (HPC)): 181 % of control
T/C (dose: 14.4 mg/kg/injection, schedule: Q01DX005 (ip), vehicle: Klucel (hydroxypropylcellulose) (HPC)): 357 % of control
T/C (dose: 16.0 mg/kg/injection, schedule: Q01DX009 (ip), vehicle: Klucel (hydroxypropylcellulose) (HPC)): 104 % of control
T/C (dose: 18.9 mg/kg/injection, schedule: Q01DX001 (ip), vehicle: other): 171 % of control
T/C (dose: 21.6 mg/kg/injection, schedule: Q01DX001 (ip), vehicle: Klucel (hydroxypropylcellulose) (HPC)): 193 % of control
T/C (dose: 24.0 mg/kg/injection, schedule: Q01DX005 (ip), vehicle: Klucel (hydroxypropylcellulose) (HPC)): 357 % of control
T/C (dose: 24.0 mg/kg/injection, schedule: Q01DX009 (ip), vehicle: Klucel (hydroxypropylcellulose) (HPC)): 315 % of control
T/C (dose: 32.0 mg/kg/injection, schedule: Q01DX001 (ip), vehicle: saline + alcohol): 233 % of control
T/C (dose: 36.0 mg/kg/injection, schedule: Q01DX001 (ip), vehicle: Klucel (hydroxypropylcellulose) (HPC)): 363 % of control
T/C (dose: 37.8 mg/kg/injection, schedule: Q01DX001 (ip), vehicle: other): 331 % of control
T/C (dose: 40.0 mg/kg/injection, schedule: Q01DX005 (ip), vehicle: Klucel (hydroxypropylcellulose) (HPC)): 154 % of control
T/C (dose: 60.0 mg/kg/injection, schedule: Q01DX001 (ip), vehicle: Klucel (hydroxypropylcellulose) (HPC)): 363 % of control
T/C (dose: 64.0 mg/kg/injection, schedule: Q01DX001 (ip), vehicle: saline + alcohol): 324 % of control
T/C (dose: 100.0 mg/kg/injection, schedule: Q01DX001 (ip), vehicle: Klucel (hydroxypropylcellulose) (HPC)): 363 % of control
T/C (dose: 128.0 mg/kg/injection, schedule: Q01DX001 (ip), vehicle: saline + alcohol): 90 % of control

CN1C(=O)CC(c2ccc(NC(=O)N(CCCl)N=O)cc2)C1=O (stereo not drawn)
T/C (dose: 0.75 mg/kg/injection, schedule: Q01DX005 (ip), vehicle: distilled water + Tween-80): 119 % of control
T/C (dose: 1.5 mg/kg/injection, schedule: Q01DX005 (ip), vehicle: distilled water + Tween-80): 180 % of control
T/C (dose: 6.0 mg/kg/injection, schedule: Q01DX005 (ip), vehicle: distilled water + Tween-80): 210 % of control
T/C (dose: 12.0 mg/kg/injection, schedule: Q01DX005 (ip), vehicle: distilled water + Tween-80): 240 % of control

O=[n+]1c2ccccc2n([O-])c2cc(Cl)ccc21
T/C [1]: 100 % of control
T/C [2]: 106 % of control
T/C [3]: 95 % of control
T/C [4]: 89 % of control

O=c1ccc2ccccc2o1
T/C (dose: 12.5 mg/kg/injection, schedule: Q01DX005 (ip), vehicle: Klucel (hydroxypropylcellulose) (HPC)): 100 % of control
T/C (dose: 25.0 mg/kg/injection, schedule: Q01DX005 (ip), vehicle: Klucel (hydroxypropylcellulose) (HPC)): 92 % of control
T/C (dose: 45.0 mg/kg/injection, schedule: Q01DX005 (ip), vehicle: saline with Tween-80): 103 % of control
T/C (dose: 50.0 mg/kg/injection, schedule: Q01DX005 (ip), vehicle: Klucel (hydroxypropylcellulose) (HPC)): 108 % of control
T/C (dose: 90.0 mg/kg/injection, schedule: Q01DX005 (ip), vehicle: saline with Tween-80): 98 % of control
T/C (dose: 100.0 mg/kg/injection, schedule: Q01DX005 (ip), vehicle: Klucel (hydroxypropylcellulose) (HPC)): 104 % of control

COC(=O)c1cccc(N=NN(C)C)c1
T/C (dose: 8.0 mg/kg/injection, schedule: Q01DX005 (ip), vehicle: saline + alcohol): 98 % of control
T/C (dose: 16.0 mg/kg/injection, schedule: Q01DX005 (ip), vehicle: saline + alcohol): 108 % of control
T/C (dose: 32.0 mg/kg/injection, schedule: Q01DX005 (ip), vehicle: saline + alcohol): 123 % of control
T/C [4]: 114 % of control
T/C (dose: 128.0 mg/kg/injection, schedule: Q01DX005 (ip), vehicle: saline + alcohol): 162 % of control

Cc1cc2nc3ccc(N)cc3oc-2cc1=[N+](C)C
T/C (dose: 6.25 mg/kg/injection, schedule: Q01DX005 (ip), vehicle: saline): 106 % of control
T/C (dose: 12.5 mg/kg/injection, schedule: Q01DX005 (ip), vehicle: saline): 105 % of control
T/C (dose: 25.0 mg/kg/injection, schedule: Q01DX005 (ip), vehicle: saline): 102 % of control
T/C (dose: 50.0 mg/kg/injection, schedule: Q01DX005 (ip), vehicle: saline): 91 % of control

COS(C)(=O)=O
T/C (dose: 16.0 mg/kg/injection, schedule: Q01DX005 (ip), vehicle: saline): 118 % of control
T/C (dose: 32.0 mg/kg/injection, schedule: Q01DX005 (ip), vehicle: saline): 102 % of control
T/C (dose: 64.0 mg/kg/injection, schedule: Q01DX005 (ip), vehicle: saline): 100 % of control

COc1cc2c(cc1O)N=C[C@@H]1CCC(O)N1C2=O (mixture of isomers)
T/C (dose: 2.0 mg/kg/injection, schedule: Q01DX005 (ip), vehicle: distilled water + Tween-80): 95 % of control
T/C (dose: 4.0 mg/kg/injection, schedule: Q01DX005 (ip), vehicle: distilled water + Tween-80): 92 % of control
T/C (dose: 8.0 mg/kg/injection, schedule: Q01DX005 (ip), vehicle: distilled water + Tween-80): 87 % of control

COc1ccc2c(c1OC(C)=O)-c1cc(O)cc3c1C(C2)N(C(=O)CN(CCCl)CCCl)CC3 (stereo not drawn)
T/C (dose: 3.12 mg/kg/injection, schedule: Q01DX005 (ip), vehicle: saline with Tween-80): 96 % of control
T/C (dose: 6.25 mg/kg/injection, schedule: Q01DX005 (ip), vehicle: saline with Tween-80): 102 % of control
T/C [1]: 105 % of control

OCC1OC(n2cnc3c2NC=NC[C@H]3O)CC1O (stereo partly drawn)
T/C (dose: 0.12 mg/kg/injection, schedule: Q#ADX018 (ip), vehicle: saline): 102 % of control
T/C (dose: 0.25 mg/kg/injection, schedule: Q01DX005 (ip), vehicle: saline): 108 % of control and 113 % of control
T/C (dose: 0.25 mg/kg/injection, schedule: Q#ADX018 (ip), vehicle: saline): 103 % of control
T/C (dose: 0.5 mg/kg/injection, schedule: Q01DX005 (ip), vehicle: saline): 100 % of control and 103 % of control
T/C (dose: 0.5 mg/kg/injection, schedule: Q01DX009 (ip), vehicle: saline): 103 % of control and 116 % of control
T/C (dose: 0.5 mg/kg/injection, schedule: Q#A X010 (ip), vehicle: saline): 122 % of control
T/C (dose: 1.0 mg/kg/injection, schedule: Q01DX009 (ip), vehicle: saline): 88 % of control
T/C (dose: 2.0 mg/kg/injection, schedule: Q01DX009 (ip), vehicle: saline): 91 % of control
